Reference: patent US8604004B2, “Moenomycin analogs, methods of synthesis, and uses thereof” (President and Fellows of Harvard College, priority 2007, dated 2013)
≈ marks a conversion by molar mass, not a printed value. Read-outs that look alike come from different tables or passages of the source.

Legend:
[1] = tested on: S. aureus, bacterial strain 29213; experiment: MIC, standard microdilution assay, S. aureus; assay type: cell-based; conditions: Staphylococcus aureus, no visible growth after 35° C. for 22 h, read-out: MIC (μg/ml) S. aureus
Description: (§1) MIC values (μg/mL) were obtained using a standard microdilution assay.

[2] = molecular target: T1, E. faecalis PBP2a (Enterococcus faecalis, UniProt Q837Z4); experiment: IC50 for transglycosylase inhibition, E. faecalis PBP2a, [14C]-GlcNAc-labeled lipid II analogue; assay type: biochemical
T1 sequence (Q837Z4 1-728): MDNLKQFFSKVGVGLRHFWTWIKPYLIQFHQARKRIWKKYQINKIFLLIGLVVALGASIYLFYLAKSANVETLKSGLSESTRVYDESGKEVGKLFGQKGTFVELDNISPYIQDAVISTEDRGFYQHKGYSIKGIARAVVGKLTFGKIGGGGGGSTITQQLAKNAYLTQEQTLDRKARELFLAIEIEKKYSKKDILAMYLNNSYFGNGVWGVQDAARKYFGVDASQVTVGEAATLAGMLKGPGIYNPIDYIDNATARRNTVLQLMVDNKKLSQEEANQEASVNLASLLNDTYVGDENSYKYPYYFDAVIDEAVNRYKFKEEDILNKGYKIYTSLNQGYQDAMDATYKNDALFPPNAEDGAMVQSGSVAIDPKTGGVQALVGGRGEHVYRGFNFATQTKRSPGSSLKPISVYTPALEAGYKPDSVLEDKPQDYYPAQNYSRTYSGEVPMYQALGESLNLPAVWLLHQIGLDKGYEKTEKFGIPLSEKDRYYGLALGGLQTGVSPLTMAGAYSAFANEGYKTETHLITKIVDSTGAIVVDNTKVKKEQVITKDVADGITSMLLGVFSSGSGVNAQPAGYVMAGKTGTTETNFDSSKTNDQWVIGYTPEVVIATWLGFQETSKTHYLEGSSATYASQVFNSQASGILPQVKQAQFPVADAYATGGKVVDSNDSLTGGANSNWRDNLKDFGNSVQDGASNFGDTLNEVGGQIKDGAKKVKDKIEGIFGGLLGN
Description: The pbp2a gene was PCR-amplified from E. faecalis (CL4877) purified genomic DNA using the following primer pair: 5′-[…] AATCTTAAACAATTTTTT-3′ (SEQ ID NO: 1) and 5′[…]-3′ (SEQ ID NO: 2). The first primer introduced a NdeI restriction site (underlined), and the second primer introduced a XhoI site into the PCR product. The PCR product was subcloned into pET42 (Novagen) for expression in E. coli BL21(DE3) (Novagen) as a C-terminal His8 fusion. PBP2a was expressed after induction of a log phase culture grown at 37° C. with 1 mM IPTG and grown at 15° C. for an additional 20 h. The cells were harvested by centrifugation, and the cell pellets were resuspended in buffer A (20 mM Tris-HCl, 150 mM NaCl, pH 7.4) supplemented with 360 kU of rLysozyme (Novagen). The cells were lysed using a French pressure cell at 16,000 psi in buffer A. Freely soluble proteins were decanted and the pellet resuspended in buffer A containing 0.5% Sarkosyl to release membrane-anchored PBP2a. […] Fractions were analyzed by 12% SDS-PAGE, pooled and concentrated using a Amicon Ultra Centrifuga Filter Device (50K MW cutoff). […]
IC50 Values for PBP2a. […] Products and starting material were separated using chromatography (isobutryic acid:1 N NH4OH=5:3) and quantitated by scintillation counting. […]

[3] = molecular target: T2, S. aureus PBP2 (Staphylococcus aureus, UniProt Q9R744); experiment: IC50 for transglycosylase inhibition, S. aureus PBP2, [14C]-GlcNAc-labeled lipid II analogue; assay type: biochemical
T2 construct: made in house
T2 sequence (Q9R744 1-727): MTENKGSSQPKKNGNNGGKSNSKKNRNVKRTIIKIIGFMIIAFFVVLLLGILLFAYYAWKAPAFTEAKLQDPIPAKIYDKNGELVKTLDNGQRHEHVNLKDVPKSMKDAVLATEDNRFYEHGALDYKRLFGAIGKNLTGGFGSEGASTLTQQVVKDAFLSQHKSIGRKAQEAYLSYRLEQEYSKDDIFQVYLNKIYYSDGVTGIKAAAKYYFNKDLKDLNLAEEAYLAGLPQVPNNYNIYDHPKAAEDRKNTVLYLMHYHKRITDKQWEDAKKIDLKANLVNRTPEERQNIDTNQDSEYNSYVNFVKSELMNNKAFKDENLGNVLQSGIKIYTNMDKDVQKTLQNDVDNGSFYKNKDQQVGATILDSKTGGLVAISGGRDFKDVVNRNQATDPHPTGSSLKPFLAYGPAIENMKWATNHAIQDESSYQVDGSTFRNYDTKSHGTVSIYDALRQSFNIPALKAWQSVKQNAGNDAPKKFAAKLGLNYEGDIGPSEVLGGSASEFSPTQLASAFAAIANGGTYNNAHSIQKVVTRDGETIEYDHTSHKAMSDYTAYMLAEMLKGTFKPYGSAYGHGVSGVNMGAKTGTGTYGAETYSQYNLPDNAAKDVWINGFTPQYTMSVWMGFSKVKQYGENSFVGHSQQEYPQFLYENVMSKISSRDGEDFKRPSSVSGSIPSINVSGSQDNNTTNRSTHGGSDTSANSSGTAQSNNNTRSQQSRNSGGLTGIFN
Experimental: S. aureus PBP2 was over-expressed and purified as described^4,5. The IC50s for moenomycin and neryl compounds were carried out using the following reaction condition: (0-50 μM) and PBP2 (final concentration 30 nM) were incubated in Eppendorf tubes containing 9 μL of buffer [(50 mM HEPES buffer, 50 mM MOPS, 50 mM MES, 50 mM AcOH) at pH 5.0, 10 mM CaCl2, 20% DMSO (v/v), 250 unit/mL penicillin G] for 30 min. The reaction was initiated by adding 4 μM [^14C]-GlcNAc-labeled lipid II analogue^4 (specific activity=101 cpm/pmol) and quenched after 80 min with 10 μL of ice-cold 10 mM Tris (pH=8.0) containing 0.2% Triton X-100. The reaction mixture was immediately spotted on cellulose chromatography paper (3MM Whatmann). Products and starting material were separated using chromatography (isobutryic acid:1 N NH4OH=5:3) and quantitated by scintillation counting. The data were fit using Prism, as described^3,4.

[4] = tested on: E. faecalis, bacterial strain 29212; experiment: MIC, standard microdilution assay, E. faecalis; assay type: cell-based; conditions: Enterococcus faecalis, no visible growth after 35° C. for 22 h, read-out: MIC (μg/ml) E. faecalis
Description: as §1

[5] = cited from earlier work
[6] = tested on: bacteria; conditions: on a molar basis, cited from earlier work

Compound	MIC [1] [µg/mL]	IC50 ([2]; PBP2a 52 nM, pH 7.5, 4 μM lipid II analogue, read-out: IC50 (μg/ml) E. faecalis PBP2a (converted)) [nM]	IC50 [3] [nM]	MIC [4] [µg/mL]	absorption upon oral administration ([5]; oral)	pharmacokinetic properties ([5]; related to the lipid side chain)	IC50 [2] [nM]	potency relative to vancomycin ([6]; listed as Moenomycin A)	potency relative to vancomycin ([6]; listed as moenomycin A)
CC(=O)NC1[C@H](O[C@@H]2C(CO[C@@H]3OC(CO)[C@@H](O)[C@H](O)C3O)O[C@@H](OC3[C@@H](OP(=O)(O)OC[C@@H](OC/C=C(/C)CCC=C(C)C)C(=O)O)OC(C(N)=O)[C@@](C)(O)[C@@H]3OC(N)=O)C(NC(C)=O)[C@H]2O)OC(C)[C@@H](O[C@@H]2OC(C(=O)NC3=C(O)CCC3=O)[C@H](O)[C@H](O)C2O)[C@@H]1O (stereo partly drawn) [compound 15]	> 250	16	41.4	> 250					
C=C(C/C=C(\C)CCC=C(C)C)CCC(C)(C)/C=C/CC/C(C)=C\CO[C@H](COP(=O)(O)O[C@H]1OC(C(N)=O)[C@@](C)(O)[C@H](OC(N)=O)C1O[C@@H]1OC(CO[C@@H]2OC(CO)[C@@H](O)[C@H](O)C2O)[C@@H](O[C@@H]2OC(C)[C@@H](O[C@@H]3OC(C(=O)NC4=C(O)CCC4=O)[C@H](O)[C@H](O)C3O)[C@H](O)C2NC(C)=O)[C@H](O)C1NC(C)=O)C(=O)O (stereo partly drawn) [compound 1, Moenomycin A]	0.016 (≈ 0.0101 µM)		22.1	0.063 (≈ 0.0398 µM)	relatively poor	poor pharmacokinetic properties	26.5	a thousand times more potent than the antibiotic vancomycin	a thousand times more potent than vancomycin
